Patent US7322965B2, “Infection-resistant medical devices” (priority 2002, dated 2008)
Entries after “also recorded” stand apart in the source; their conditions may differ. Read-outs that look alike come from different tables or passages of the source. Marks after values point to notes of the source that are not given here.

Columns and labels:
S. epidermidis RP62A [1] = assay: Time course adherence assay (prophylactic and delayed treatment); assay type: cell-based; conditions: for inhibition at 1 µg/mL / inhibition at 2 µg/mL / inhibition at 4 µg/mL / inhibition at 8 µg/mL: Staphylococcus epidermidis, read-out: Percent inhibition of bacterial adherence relative to controls
Description: Drug effects on bacterial adherence were measured 18 hours after treatment initiation using a quantitative spectrophotometric assay.
Relative inhibition of adherence was expressed by the following equation: (OD of control well−OD of treated well/OD of control well)×100, where OD is the mean optical density of six replicate wells from two separate experiments (three replicates per experiment). Control was defined as infected, drug-free cultures.
The primary efficacy variable in this study was the measurement of adherent bacteria to polystyrene surfaces after 18 hours to 24 hours of growth. To determine whether statistically significant differences existed between treatments (4×MIC, 2×MIC, MIC, and ½ MIC) compared with the infected-nontreated controls, multiple comparisons according to Dunnett's test (Montgomery, Design and Analysis of Experiments (1991)) were applied for each clinical strain. Differences were considered statistically significant when p<0.05.

S. epidermidis UC-20207 = assay: Microtiter-plate adherence assay on polystyrene; assay type: cell-based; conditions: for Adherence Mean OD550: S. epidermidis UC-20207, 18 h
Description: (§1) Briefly, the inoculum was established by the direct colony suspension method using the Prompt™ Inoculation System (Becton Dickinson, Sparks, Md.). The bacteria suspension, which was equal to the turbidity of a 0.5 McFarland standard, was diluted in TSB to a concentration of 1×10^6 colony forming units per ml (CFU/mL). One hundred microliters of the cell suspension was added to flat-bottom polystyrene wells (Corning Costar, Corning, N.Y.) containing 100 μl of TSB, with and without drug. The final inoculum concentration per well was approximately 5×10^5 CFU/mL. The plates were incubated at 37° C. under static conditions in air. At 18 hours (h) post-infection, the optical density of bacterial growth was measured at a wavelength of 595 nm in a microtiter plate reader (Vmax; Molecular Devices, Sunnyvale, Calif.). […] Adherent “sessile” cells then were fixed with 3.7% (v/v) formaldehyde/2% (w/v) sodium acetate and stained with 0.1% (w/v) crystal violet. Excess stain was rinsed off with deionized water and the plates were air-dried for 4 h. The optical density of bacterial adherence was determined at a wavelength of 550 nm. […] To compensate for background absorbance, optical density readings from wells treated with sterile medium, fixative and stain as described above were averaged and then subtracted from all test and control wells. Relative inhibition of adherence or growth was expressed by the following equation: (OD of control well−OD of treated well/OD of control well)×100, where OD is the mean optical density of six replicate wells from two separate experiments (three replicates per experiment). Control was defined as infected, drug-free cultures.
(§2) The primary efficacy variable in this study was the measurement of adherent bacterial cells to polystyrene after 18 h of growth. To determine whether statistically significant differences existed between treatment groups (MIC, ½ MIC, and ¼ MIC) compared with the infected-nontreated controls, the Kruskal-Wallis one-way analysis of variance (ANOVA) was applied for each clinical strain. Statistical significance was defined as p-values ≦0.05. An asterisk (*) was placed by all test values less than or equal to the specified significance level.

S. epidermidis RP62A [2] = assay: Microtiter-plate adherence assay on polystyrene; assay type: cell-based; conditions: 18 h; for Adherence Mean OD550: S. epidermidis RP62A
Description: as §1, §2

[3] = tested on: S. aureus and S. epidermidis strains; assay: Microtiter-plate adherence assay, summary over all strains evaluated; assay type: cell-based, staphylococci
Description: Briefly, the inoculum was established by the direct colony suspension method using the Prompt™ Inoculation System (Becton Dickinson, Sparks, Md.). The bacteria suspension, which was equal to the turbidity of a 0.5 McFarland standard, was diluted in TSB to a concentration of 1×10^6 colony forming units per ml (CFU/mL). One hundred microliters of the cell suspension was added to flat-bottom polystyrene wells (Corning Costar, Corning, N.Y.) containing 100 μl of TSB, with and without drug. The final inoculum concentration per well was approximately 5×10^5 CFU/mL. The plates were incubated at 37° C. under static conditions in air. At 18 hours (h) post-infection, the optical density of bacterial growth was measured at a wavelength of 595 nm in a microtiter plate reader (Vmax; Molecular Devices, Sunnyvale, Calif.). […] Adherent “sessile” cells then were fixed with 3.7% (v/v) formaldehyde/2% (w/v) sodium acetate and stained with 0.1% (w/v) crystal violet. Excess stain was rinsed off with deionized water and the plates were air-dried for 4 h. The optical density of bacterial adherence was determined at a wavelength of 550 nm. Preliminary studies were performed to determine the optimal wavelengths for measuring growth turbidity and stained adherent cells (data not shown). To compensate for background absorbance, optical density readings from wells treated with sterile medium, fixative and stain as described above were averaged and then subtracted from all test and control wells. Relative inhibition of adherence or growth was expressed by the following equation: (OD of control well−OD of treated well/OD of control well)×100, where OD is the mean optical density of six replicate wells from two separate experiments (three replicates per experiment). Control was defined as infected, drug-free cultures.
as §2

[4] = Staphylococcus epidermidis, UC20207, 18 h, read-out: Adherence % Inhibition
[5] = Staphylococcus epidermidis, RP62A, read-out: Adherence % Inhibition

SMILES: CC(=O)NC[C@H]1CN(c2ccc(N3CCOCC3)c(F)c2)C(=O)O1 [Linezolid, (S)-N-[[3-[3-fluoro-4-(4-morpholinyl)phenyl]-2-oxo-5-oxazolidinyl]methyl]acetamide]
- Mean OD550 (S. epidermidis RP62A [1]; 1.0 μg/ml, treatment 0 h post-infection): 0.000 ± 0.002
- Mean OD550 (S. epidermidis RP62A [1]; 1.0 μg/ml, treatment 2 h post-infection): 0.000 ± 0.000
- Mean OD550 (S. epidermidis RP62A [1]; 1.0 μg/ml, treatment 4 h post-infection): 0.000 ± 0.001
- Mean OD550 (S. epidermidis RP62A [1]; 1.0 μg/ml, treatment 6 h post-infection): 0.274 ± 0.183
- Mean OD550 (S. epidermidis RP62A [1]; 2.0 μg/ml (MIC), treatment 0 h post-infection): 0.004 ± 0.004
- Mean OD550 (S. epidermidis RP62A [1]; 2.0 μg/ml (MIC), treatment 2 h post-infection): 0.001 ± 0.001
- Mean OD550 (S. epidermidis RP62A [1]; 2.0 μg/ml (MIC), treatment 4 h post-infection): 0.003 ± 0.005
- Mean OD550 (S. epidermidis RP62A [1]; 2.0 μg/ml (MIC), treatment 6 h post-infection): 0.083 ± 0.067
- Mean OD550 (S. epidermidis RP62A [1]; 4.0 μg/ml, treatment 0 h post-infection): 0.002 ± 0.002
- Mean OD550 (S. epidermidis RP62A [1]; 4.0 μg/ml, treatment 2 h post-infection): 0.003 ± 0.002
- Mean OD550 (S. epidermidis RP62A [1]; 4.0 μg/ml, treatment 4 h post-infection): 0.002 ± 0.004
- Mean OD550 (S. epidermidis RP62A [1]; 4.0 μg/ml, treatment 6 h post-infection): 0.082 ± 0.051
- Mean OD550 (S. epidermidis RP62A [1]; 8.0 μg/ml, treatment 0 h post-infection): 0.002 ± 0.002
- Mean OD550 (S. epidermidis RP62A [1]; 8.0 μg/ml, treatment 2 h post-infection): 0.003 ± 0.001
- Mean OD550 (S. epidermidis RP62A [1]; 8.0 μg/ml, treatment 4 h post-infection): 0.000 ± 0.001
- Mean OD550 (S. epidermidis RP62A [1]; 8.0 μg/ml, treatment 6 h post-infection): 0.021 ± 0.010
- inhibition at 1 µg/mL (S. epidermidis RP62A [1]; 0 h): 100%
- inhibition at 2 µg/mL (S. epidermidis RP62A [1]; 0 h): 99.8%
- inhibition at 4 µg/mL (S. epidermidis RP62A [1]; 0 h): 99.9%
- inhibition at 8 µg/mL (S. epidermidis RP62A [1]; 0 h): 99.9%
- inhibition at 1 µg/mL (S. epidermidis RP62A [1]; 2 h): 100%
- inhibition at 2 µg/mL (S. epidermidis RP62A [1]; 2 h): 99.9%
- inhibition at 4 µg/mL (S. epidermidis RP62A [1]; 2 h): 99.9%
- inhibition at 8 µg/mL (S. epidermidis RP62A [1]; 2 h): 99.8%
- inhibition at 1 µg/mL (S. epidermidis RP62A [1]; 4 h): 100%
- inhibition at 2 µg/mL (S. epidermidis RP62A [1]; 4 h): 99.8%
- inhibition at 4 µg/mL (S. epidermidis RP62A [1]; 4 h): 99.8%
- inhibition at 8 µg/mL (S. epidermidis RP62A [1]; 4 h): 100%
- inhibition at 1 µg/mL (S. epidermidis RP62A [1]; 6 h): 78.4%
- inhibition at 2 µg/mL (S. epidermidis RP62A [1]; 6 h): 93.4%
- inhibition at 4 µg/mL (S. epidermidis RP62A [1]; 6 h): 93.5%
- inhibition at 8 µg/mL (S. epidermidis RP62A [1]; 6 h): 98.4%
- Adherence Mean OD550 (S. epidermidis UC-20207; drug 0.5 μg/ml): 0.513 ± 0.227*
- Adherence Mean OD550 (S. epidermidis UC-20207; drug 1.0 μg/ml): 0.007 ± 0.002*
- Adherence Mean OD550 (S. epidermidis UC-20207; drug 2.0 μg/ml (MIC)): 0.010 ± 0.005*
- inhibition at 0.5 µg/mL (S. epidermidis UC-20207; [4]): 76.9%
- inhibition at 1 µg/mL (S. epidermidis UC-20207; [4]): 99.7%
- inhibition at 2 µg/mL (S. epidermidis UC-20207; [4]): 99.5%
- Adherence Mean OD550 (S. epidermidis RP62A [2]; drug 0.5 μg/ml): 0.125 ± 0.133*
- Adherence Mean OD550 (S. epidermidis RP62A [2]; drug 1.0 μg/ml): 0.002 ± 0.002*
- Adherence Mean OD550 (S. epidermidis RP62A [2]; drug 2.0 μg/ml (MIC)): 0.001 ± 0.001*
- inhibition at 0.5 µg/mL (S. epidermidis RP62A [2]; [5]): 95.5%
- inhibition at 1 µg/mL (S. epidermidis RP62A [2]; [5]): 99.9%
- inhibition at 2 µg/mL (S. epidermidis RP62A [2]; [5]): 100%
- effect on bacterial adhesion at subinhibitory concentrations ([3]; concentrations less than the MIC, as low as one-fourth the MIC, five strains): surprisingly effective at preventing bacterial adhesion; also recorded: significant inhibitory effects on cell adhesion in all strains evaluated
- preventing adherence to polystyrene ([3]; one-fourth the MIC, five strains): effective in preventing adherence at one-fourth the MIC in all but one strain
- percent inhibition of adherence relative to control ([3]; one-half the MIC, all strains evaluated): greater than or equal to 99.0%
